Measured values taken from paper PMC6149751, “Spiro[pyrrolidine-3,3′-oxindoles] and Their Indoline Analogues as New 5-HT6 Receptor Chemotypes” (Molecules : A Journal of Synthetic Chemistry and Natural …, 2017).
Read-outs that look alike come from different tables or passages of the source.

Legend:
Format in all cases: binding
[1] = molecular target: T1, 5-HT6R (Homo sapiens, UniProt P50406); assay: [3H]-LSD displacement, HEK293 membranes
T1 construct: gene HTR6; full-length human receptor stably expressed in HEK293 cells; membranes
T1 sequence (P50406 whole entry): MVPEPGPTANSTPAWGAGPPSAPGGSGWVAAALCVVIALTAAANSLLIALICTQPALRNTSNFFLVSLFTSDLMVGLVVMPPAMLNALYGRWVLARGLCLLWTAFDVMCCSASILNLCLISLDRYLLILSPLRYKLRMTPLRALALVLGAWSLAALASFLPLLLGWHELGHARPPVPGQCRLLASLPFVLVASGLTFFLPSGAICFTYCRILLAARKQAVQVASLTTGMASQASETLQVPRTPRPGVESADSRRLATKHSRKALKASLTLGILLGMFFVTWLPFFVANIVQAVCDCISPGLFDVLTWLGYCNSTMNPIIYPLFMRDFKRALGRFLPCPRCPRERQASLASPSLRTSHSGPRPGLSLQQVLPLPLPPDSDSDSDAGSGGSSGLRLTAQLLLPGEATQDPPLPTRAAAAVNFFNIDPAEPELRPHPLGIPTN
Description: [3H]-LSD displacement, HEK293 membranes on 5-HT6R

[2] = molecular target: T2, 5-HT2AR (Homo sapiens, UniProt P28223); assay: [3H]-Ketanserin displacement, CHO-K1 membranes
T2 construct: gene HTR2A; full-length human receptor expressed from plasmid in CHO-K1 cells (PerkinElmer); membranes
T2 sequence (P28223 whole entry): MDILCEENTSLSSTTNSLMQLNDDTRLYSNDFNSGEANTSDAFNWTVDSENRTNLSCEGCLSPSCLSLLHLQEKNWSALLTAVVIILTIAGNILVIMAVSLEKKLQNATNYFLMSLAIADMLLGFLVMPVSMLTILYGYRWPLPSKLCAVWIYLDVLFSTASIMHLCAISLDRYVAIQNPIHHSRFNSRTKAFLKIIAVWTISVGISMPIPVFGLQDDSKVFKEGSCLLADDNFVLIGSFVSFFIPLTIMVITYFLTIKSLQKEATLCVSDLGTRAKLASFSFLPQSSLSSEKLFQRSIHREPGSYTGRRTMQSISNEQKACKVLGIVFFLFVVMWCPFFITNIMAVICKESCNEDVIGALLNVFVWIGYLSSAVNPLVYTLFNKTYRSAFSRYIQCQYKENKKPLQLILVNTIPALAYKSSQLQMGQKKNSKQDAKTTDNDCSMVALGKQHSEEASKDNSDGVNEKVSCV
Description: [3H]-Ketanserin displacement, CHO-K1 membranes on 5-HT2AR

[3] = molecular target: T3, 5-HT7bR (Homo sapiens, UniProt P34969); assay: [3H]-5-CT displacement, HEK293 membranes
T3 construct: gene HTR7; human splice isoform 5-HT7b stably expressed in HEK293 cells; membranes
T3 sequence (P34969 1-432): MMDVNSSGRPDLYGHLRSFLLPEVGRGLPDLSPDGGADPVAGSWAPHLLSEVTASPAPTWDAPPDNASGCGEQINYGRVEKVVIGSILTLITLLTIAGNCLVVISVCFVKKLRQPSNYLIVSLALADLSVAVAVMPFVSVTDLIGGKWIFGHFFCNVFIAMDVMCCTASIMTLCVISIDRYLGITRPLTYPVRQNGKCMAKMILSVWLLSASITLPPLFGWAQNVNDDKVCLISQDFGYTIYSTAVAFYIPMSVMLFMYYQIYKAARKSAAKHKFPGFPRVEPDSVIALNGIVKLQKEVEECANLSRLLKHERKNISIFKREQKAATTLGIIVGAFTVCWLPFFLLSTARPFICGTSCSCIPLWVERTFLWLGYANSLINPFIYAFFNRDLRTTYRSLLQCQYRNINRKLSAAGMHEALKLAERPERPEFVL
Description: [3H]-5-CT displacement, HEK293 membranes on 5-HT7bR

[4] = molecular target: T4, 5-HT1AR (Homo sapiens, UniProt P08908); assay: [3H]-8-OH-DPAT displacement, HEK293 membranes
T4 construct: gene HTR1A; full-length human receptor stably expressed in HEK293 cells; membranes
T4 sequence (P08908 1-422): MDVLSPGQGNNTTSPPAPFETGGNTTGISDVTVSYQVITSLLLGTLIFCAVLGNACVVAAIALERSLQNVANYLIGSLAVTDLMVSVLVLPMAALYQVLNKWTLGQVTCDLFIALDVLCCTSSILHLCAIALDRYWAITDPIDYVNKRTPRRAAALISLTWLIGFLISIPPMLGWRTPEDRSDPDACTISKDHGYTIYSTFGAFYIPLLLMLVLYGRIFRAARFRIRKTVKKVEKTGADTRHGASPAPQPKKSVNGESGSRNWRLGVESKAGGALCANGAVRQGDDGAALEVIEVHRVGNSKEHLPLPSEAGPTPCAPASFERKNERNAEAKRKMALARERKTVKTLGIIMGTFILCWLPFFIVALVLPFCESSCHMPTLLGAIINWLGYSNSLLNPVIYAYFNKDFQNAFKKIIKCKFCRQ
Description: [3H]-8-OH-DPAT displacement, HEK293 membranes on 5-HT1AR

Structure (SMILES) | Ki ([1]; read-out: 5-HT6) | Ki ([2]; read-out: 5-HT2A) | Ki ([3]; read-out: 5-HT7) | Ki [1] | Ki [2] | Ki [3] | Ki ([4]; read-out: 5-HT1A) | Ki [4]
O=S(=O)(c1ccccc1)N1CC2(CCN(Cc3ccccc3)C2)c2ccccc21 (centres unmarked) [39a, 1′-Benzyl-1-(phenylsulfonyl)spiro[indoline-3,3′-pyrrolidine]] | 0.76 µM | 4.76 µM | 55.8 µM | – | – | – | – | –
O=S(=O)(c1ccccc1)N1CC2(CCN(Cc3ccncc3)C2)c2ccccc21 (centres unmarked) [39b, 1-(Phenylsulfonyl)-1′-(pyridin-4-ylmethyl)spiro[indoline-3,3′-pyrrolidine]] | – | – | – | 6.6 µM | 26.9 µM | – | – | –
CN1CCC2(C1)CN(S(=O)(=O)c1ccccc1)c1ccccc12 (centres unmarked) [40a, 1′-Methyl-1-(phenylsulfonyl)spiro[indoline-3,3′-pyrrolidine]] | 1.85 µM | 4.52 µM | 40.2 µM | – | – | – | – | –
CCN1CCC2(C1)CN(S(=O)(=O)c1ccccc1)c1ccccc12 (centres unmarked) [40b, 1′-Ethyl-1-(phenylsulfonyl)spiro[indoline-3,3′-pyrrolidine]] | 2.42 µM | 3.82 µM | – | – | – | – | – | –
O=S(=O)(c1ccccc1)N1CC2(CCN(Cc3ccccc3F)C2)c2ccccc21 (centres unmarked) [44a, 1′-(2-Fluorobenzyl)-1-(phenylsulfonyl)spiro[indoline-3,3′-pyrrolidine]] | – | – | – | 4.53 µM | – | 78.9 µM | – | –
O=S(=O)(c1ccccc1)N1CC2(CCN(Cc3cccc(F)c3)C2)c2ccccc21 (centres unmarked) [44b, 1′-(3-Fluorobenzyl)-1-(phenylsulfonyl)spiro[indoline-3,3′-pyrrolidine]] | 1.97 µM | – | 31.5 µM | – | – | – | – | –
O=S(=O)(c1ccccc1)N1CC2(CCN(Cc3ccc(F)cc3)C2)c2ccccc21 (centres unmarked) [44c, 1′-(4-Fluorobenzyl)-1-(phenylsulfonyl)spiro[indoline-3,3′-pyrrolidine]] | 1.77 µM | – | 15.7 µM | – | – | – | – | –
O=S(=O)(c1ccccc1F)N1CC2(CCN(Cc3ccccc3)C2)c2ccccc21 (centres unmarked) [46a, 1′-Benzyl-1-((2-fluorophenyl)sulfonyl)spiro[indoline-3,3′-pyrrolidine]] | 0.19 µM | – | 42.6 µM | – | – | – | – | –
O=S(=O)(c1cccc(F)c1)N1CC2(CCN(Cc3ccccc3)C2)c2ccccc21 (centres unmarked) [46b, 1′-Benzyl-1-((3-fluorophenyl)sulfonyl)spiro[indoline-3,3′-pyrrolidine]] | 0.71 µM | – | 76 µM | – | – | – | – | –
O=S(=O)(c1ccc(F)cc1)N1CC2(CCN(Cc3ccccc3)C2)c2ccccc21 (centres unmarked) [46c, 1′-Benzyl-1-((4-fluorophenyl)sulfonyl)spiro[indoline-3,3′-pyrrolidine]] | 2.45 µM | – | 56.1 µM | – | – | – | – | –
O=C1Nc2ccccc2C12CCNC2c1cccc(F)c1 (centres unmarked) [compound 6, 2′-(3-fluorophenyl)spiro[indoline-3,3′-pyrrolidin]-2-one] | 6.75 µM | 5.05 µM | 8.48 µM | – | – | – | 16.9 µM | –
COc1ccc(C2NCCC23C(=O)Nc2ccccc23)cc1OC (centres unmarked) [compound 7, 7] | – | – | – | 2.26 µM | 5.45 µM | 2.69 µM | – | 7.07 µM
O=C1Nc2ccccc2C12CCNC2c1ccc(OCc2ccc(F)cc2)cc1 (centres unmarked) [compound 8, 8] | – | – | – | 3.18 µM | 2.28 µM | 1.09 µM | – | 1.74 µM
O=C1Nc2ccccc2C12CCNC2c1ccc2c(c1)OCO2 (centres unmarked) [compound 9, 9] | – | – | – | 3.2 µM | 2.69 µM | 8.82 µM | – | 9.84 µM
O=C1Nc2ccccc2C12CCNC2c1ccc2c(c1)OCCO2 (centres unmarked) [compound 10, 10] | – | – | – | 4.11 µM | 4.33 µM | 12.7 µM | – | 12.1 µM
N#Cc1cccnc1Oc1ccc(C2NCCC23C(=O)Nc2ccccc23)cc1 (centres unmarked) [compound 11, 11] | – | – | – | 6.2 µM | 8.68 µM | 59 µM | – | 49.1 µM
O=C1Nc2ccccc2C12CCNC2c1cccc2cccnc12 (centres unmarked) [compound 12, 12] | – | – | – | 6.63 µM | 1.12 µM | 10.5 µM | – | 45.7 µM
COc1cc(C2NCCC23C(=O)Nc2ccccc23)ccc1OC(F)F (centres unmarked) [compound 13, 13] | – | – | – | 7.73 µM | 5.77 µM | 7.49 µM | – | 7.14 µM
CC(C)c1ccc(C2NCCC23C(=O)Nc2ccccc23)cc1 (centres unmarked) [compound 14, 14] | – | – | – | 8.62 µM | 4.54 µM | 8.98 µM | – | 7.76 µM
Cn1c(=O)n(C)c2cc(C3NCCC34C(=O)Nc3ccccc34)ccc21 (centres unmarked) [compound 15, 15] | – | – | – | 9.49 µM | 23.7 µM | 46.7 µM | – | 40.5 µM
O=C1Nc2ccc(F)cc2C12CCNC2c1ccc(F)c(Cl)c1 (centres unmarked) [compound 16, 16] | – | – | – | 16.5 µM | 53.9 µM | – | – | –
O=C1N(S(=O)(=O)c2ccccc2)c2ccccc2C12CCNC2 (centres unmarked) [compound 17, 1-(Phenylsulfonyl)spiro[indoline-3,3′-pyrrolidin]-2-one] | 12.3 µM | – | 58.3 µM | – | – | – | – | –
O=C1Nc2ccccc2C12CCN(S(=O)(=O)c1ccccc1)C2 (centres unmarked) [compound 18, 1′-(Phenylsulfonyl)spiro[indoline-3,3′-pyrrolidin]-2-one] | – | – | – | 6.86 µM | 87.4 µM | – | – | –
